Patent US20080187556A1 (priority 2005, published 2008)
Converted amounts (≈) assume the structure as drawn. Ends that are not written are not given here.

How the values were obtained:
[1] = tested on: S180 sarcoma; parameters: species or system mice; conditions: mouse, in vivo
[2] = tested on: H22 hepatic carcinoma; parameters: species or system mice; conditions: mouse, in vivo
[3] = tested on: mononuclear phagocytes; parameters: species or system mice; conditions: mouse, in vivo
[4] = tested on: PC-3M; assay: cells; format: cell-based; conditions: Homo sapiens
[5] = tested on: A431; assay: cells; format: cell-based; conditions: Homo sapiens, A-431
[6] = tested on: HCT-8; assay: cells; format: cell-based; conditions: Homo sapiens
[7] = tested on: CaEs-17; assay: cells; format: cell-based; conditions: Homo sapiens, CaEs17
[8] = tested on: Hep-2; assay: cells; format: cell-based; conditions: Homo sapiens
[9] = tested on: Bel7402; assay: cells; format: cell-based; conditions: Homo sapiens, Bel-7402
[10] = tested on: A549; assay: cells; format: cell-based; conditions: Homo sapiens
[11] = tested on: HeLa; assay: cells; format: cell-based; conditions: Homo sapiens
[12] = tested on: EJ; assay: cells; format: cell-based; conditions: Homo sapiens
[13] = tested on: Tca83; assay: cells; format: cell-based; conditions: Homo sapiens
[14] = tested on: Ketr-3; assay: cells; format: cell-based; conditions: Homo sapiens, KETR3
[15] = tested on: BGC-823; assay: cells; format: cell-based; conditions: Homo sapiens
[16] = tested on: KB; assay: cells; format: cell-based; conditions: Homo sapiens
[17] = tested on: HELF; assay: cells; format: cell-based; conditions: Homo sapiens
[18] = tested on: MCF-7; assay: cells; format: cell-based; conditions: Homo sapiens, MCF7
[19] = parameters: species or system mice; conditions: mouse, in vivo

Compound: O=P1(N(CCCl)CCCl)NCCCO1 (stereo not shown) [Cyclophosphamide]
- pathological picture of tumor tissue [1]: necrotic and degenerated tissue scattered
- pathological picture of tumor tissue [2]: necrotic and degenerated tissue scattered
- Index of phagocytosis, K [3]: 0.0744 ± 0.0081
- Phagocytosis activity, α [3]: 4.4614 ± 0.2413

Compound: O=c1[nH]cc(F)c(=O)[nH]1 [Fluorouracil]
- IC50 [4]: 1.49 ± 1.07 µg/mL (≈ 11.4 µM)
- IC50 [5]: 0.174 ± 0.0447 µg/mL (≈ 1.34 µM)
- IC50 [6]: 0.605 ± 0.0278 µg/mL (≈ 4.65 µM)
- IC50 [7]: 0.757 ± 0.0254 µg/mL (≈ 5.82 µM)
- IC50 [8]: 4.88 ± 2.22 µg/mL (≈ 37.5 µM)
- IC50 [9]: 0.718 ± 0.0067 µg/mL (≈ 5.52 µM)
- IC50 [10]: 0.425 ± 0.034 µg/mL (≈ 3.27 µM)
- IC50 [11]: 0.613 ± 0.05 µg/mL (≈ 4.71 µM)
- IC50 [12]: 3.69 ± 0.909 µg/mL (≈ 28.4 µM)
- IC50 [13]: 0.924 ± 0.0435 µg/mL (≈ 7.1 µM)
- IC50 [14]: 0.634 ± 0.0147 µg/mL (≈ 4.87 µM)
- IC50 [15]: 0.632 ± 0.0572 µg/mL (≈ 4.86 µM)
- IC50 [16]: 0.66 ± 0.0085 µg/mL (≈ 5.07 µM)
- IC50 [17]: 0.087 ± 0.004 µg/mL (≈ 0.669 µM)
- IC50 [18]: 0.646 ± 0.0437 µg/mL (≈ 4.97 µM)

Compound: RKDVY [thymopentin]
- pathological picture of tumor tissue [1]: a few tumor cells were necrotic and degenerative
- pathological picture of tumor tissue [2]: a little of tumor cell necrosis and degeneration

Compound: Thymosin Alpha-1 (SDAAVDTSSEITTKDLKEKKEVVEEAEN; not fully specified (N-terminus); ends and bridges not checked; UniProt P06454 2-29, looked up) [biological drug, registration No. H20050339]
- Elongation index [19]: 37.5%
- Swimming time [19]: 18.9 ± 2.98 min
- Index of phagocytosis, K [3]: 0.3473 ± 0.0130
- Phagocytosis activity, α [3]: 7.9583 ± 0.5069
